Reference: ChEMBL document CHEMBL1153282, “N-substituted 2'-(aminoaryl)benzothiazoles as kinase inhibitors: hit identification and scaffold hopping” (Bioorg Med Chem Lett, 2009)

Legend:
[1] = target: T1, Aurora kinase A (Homo sapiens, UniProt O14965); assay: Inhibition of Aurora A by virtual HTS assay
T1 sequence (O14965 whole entry): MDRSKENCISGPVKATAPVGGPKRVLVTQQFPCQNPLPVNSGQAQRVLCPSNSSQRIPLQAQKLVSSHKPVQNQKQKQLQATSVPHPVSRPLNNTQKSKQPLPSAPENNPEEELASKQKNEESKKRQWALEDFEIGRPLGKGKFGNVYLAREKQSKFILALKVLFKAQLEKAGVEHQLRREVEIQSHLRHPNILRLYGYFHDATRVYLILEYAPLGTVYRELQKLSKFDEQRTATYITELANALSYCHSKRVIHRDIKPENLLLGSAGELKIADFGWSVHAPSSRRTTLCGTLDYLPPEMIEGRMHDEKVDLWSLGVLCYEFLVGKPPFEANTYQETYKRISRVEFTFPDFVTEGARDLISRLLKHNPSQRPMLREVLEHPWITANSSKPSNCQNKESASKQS

[2] = target: Aurora kinase B (Homo sapiens, UniProt Q96GD4); assay: Inhibition of Aurora B by virtual HTS assay
[3] = target: Insulin-like growth factor 1 receptor (Homo sapiens, UniProt P08069); assay: Inhibition of IGF1R by virtual HTS assay
[4] = target: T2, Ephrin type-B receptor 4 (Homo sapiens, UniProt P54760); assay: Inhibition of EphB4 by virtual HTS assay
T2 sequence (P54760 whole entry): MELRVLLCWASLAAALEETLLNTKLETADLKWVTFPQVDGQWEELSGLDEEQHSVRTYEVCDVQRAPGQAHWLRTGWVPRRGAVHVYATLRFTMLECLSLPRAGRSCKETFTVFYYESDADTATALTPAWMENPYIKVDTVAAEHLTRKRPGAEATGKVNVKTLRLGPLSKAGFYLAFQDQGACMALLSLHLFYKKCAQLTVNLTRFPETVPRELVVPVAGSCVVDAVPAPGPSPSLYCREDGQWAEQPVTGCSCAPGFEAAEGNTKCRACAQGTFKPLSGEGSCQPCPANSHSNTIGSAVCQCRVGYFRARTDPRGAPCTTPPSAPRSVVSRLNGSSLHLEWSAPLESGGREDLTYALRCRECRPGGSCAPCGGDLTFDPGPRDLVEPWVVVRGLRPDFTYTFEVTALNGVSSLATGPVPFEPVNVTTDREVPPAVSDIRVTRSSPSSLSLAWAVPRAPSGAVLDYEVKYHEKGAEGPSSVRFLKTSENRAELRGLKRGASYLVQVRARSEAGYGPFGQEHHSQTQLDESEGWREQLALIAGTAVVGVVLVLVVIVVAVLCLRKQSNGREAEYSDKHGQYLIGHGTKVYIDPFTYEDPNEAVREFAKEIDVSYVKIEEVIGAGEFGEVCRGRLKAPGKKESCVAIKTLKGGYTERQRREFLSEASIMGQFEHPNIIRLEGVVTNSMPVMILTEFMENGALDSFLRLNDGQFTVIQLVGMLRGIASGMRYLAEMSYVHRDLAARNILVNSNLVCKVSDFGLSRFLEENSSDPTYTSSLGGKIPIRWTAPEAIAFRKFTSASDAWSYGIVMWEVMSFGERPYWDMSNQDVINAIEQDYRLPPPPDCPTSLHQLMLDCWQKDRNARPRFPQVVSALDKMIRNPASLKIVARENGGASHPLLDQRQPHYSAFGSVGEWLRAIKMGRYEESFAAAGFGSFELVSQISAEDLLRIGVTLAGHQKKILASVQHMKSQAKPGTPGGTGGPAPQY

[5] = target: Proto-oncogene tyrosine-protein kinase Src (Homo sapiens, UniProt P12931); assay: Inhibition of Src by virtual HTS assay
[6] = target: Epidermal growth factor receptor (Homo sapiens, UniProt P00533); assay: Inhibition of EGFR by virtual HTS assay
[7] = target: Insulin receptor (Homo sapiens, UniProt P06213); assay: Inhibition of insulin receptor by virtual HTS assay
[8] = target: Vascular endothelial growth factor receptor 2 (Homo sapiens, UniProt P35968); assay: Inhibition of VEGFR2 by virtual HTS assay
[9] = target: Vascular endothelial growth factor receptor 3 (Homo sapiens, UniProt P35916)
Description: Inhibition of VEGFR3 by virtual HTS assay

[10] = target: Receptor tyrosine-protein kinase erbB-2 (Homo sapiens, UniProt P04626); assay: Inhibition of ErbB2 by virtual HTS assay
[11] = target: Angiopoietin-1 receptor (Homo sapiens, UniProt Q02763); assay: Inhibition of TIE2 by virtual HTS assay
Chain of Angiopoietin-1 receptor (Q02763 whole entry): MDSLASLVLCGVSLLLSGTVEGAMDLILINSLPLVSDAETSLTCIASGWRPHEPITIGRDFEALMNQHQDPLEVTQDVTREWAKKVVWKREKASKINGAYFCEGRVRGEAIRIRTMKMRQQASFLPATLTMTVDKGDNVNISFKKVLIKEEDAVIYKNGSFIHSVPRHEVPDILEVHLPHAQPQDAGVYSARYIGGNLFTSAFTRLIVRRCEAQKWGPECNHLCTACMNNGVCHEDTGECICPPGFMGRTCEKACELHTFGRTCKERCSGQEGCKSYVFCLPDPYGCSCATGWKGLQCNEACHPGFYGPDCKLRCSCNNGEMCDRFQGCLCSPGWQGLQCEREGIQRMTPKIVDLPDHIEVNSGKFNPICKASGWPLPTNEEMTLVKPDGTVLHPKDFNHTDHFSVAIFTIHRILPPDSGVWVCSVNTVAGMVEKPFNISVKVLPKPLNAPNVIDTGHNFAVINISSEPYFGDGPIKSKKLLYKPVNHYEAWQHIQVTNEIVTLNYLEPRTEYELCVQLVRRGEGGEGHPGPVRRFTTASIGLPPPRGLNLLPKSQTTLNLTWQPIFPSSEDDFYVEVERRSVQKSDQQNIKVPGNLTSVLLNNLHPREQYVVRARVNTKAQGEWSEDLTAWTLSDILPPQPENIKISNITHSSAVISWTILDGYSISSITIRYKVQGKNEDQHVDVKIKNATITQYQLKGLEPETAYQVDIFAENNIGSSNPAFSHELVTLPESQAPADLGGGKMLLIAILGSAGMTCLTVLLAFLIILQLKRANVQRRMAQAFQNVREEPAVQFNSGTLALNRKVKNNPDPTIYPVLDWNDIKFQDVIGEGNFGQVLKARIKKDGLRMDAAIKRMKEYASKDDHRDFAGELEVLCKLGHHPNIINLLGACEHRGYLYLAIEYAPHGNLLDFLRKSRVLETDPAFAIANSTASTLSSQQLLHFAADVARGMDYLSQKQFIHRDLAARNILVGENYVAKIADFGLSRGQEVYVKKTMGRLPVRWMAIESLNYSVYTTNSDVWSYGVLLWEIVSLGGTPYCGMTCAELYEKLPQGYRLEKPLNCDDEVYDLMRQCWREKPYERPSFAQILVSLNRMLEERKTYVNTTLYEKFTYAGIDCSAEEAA

Chain of Vascular endothelial growth factor receptor 2 (P35968 whole entry): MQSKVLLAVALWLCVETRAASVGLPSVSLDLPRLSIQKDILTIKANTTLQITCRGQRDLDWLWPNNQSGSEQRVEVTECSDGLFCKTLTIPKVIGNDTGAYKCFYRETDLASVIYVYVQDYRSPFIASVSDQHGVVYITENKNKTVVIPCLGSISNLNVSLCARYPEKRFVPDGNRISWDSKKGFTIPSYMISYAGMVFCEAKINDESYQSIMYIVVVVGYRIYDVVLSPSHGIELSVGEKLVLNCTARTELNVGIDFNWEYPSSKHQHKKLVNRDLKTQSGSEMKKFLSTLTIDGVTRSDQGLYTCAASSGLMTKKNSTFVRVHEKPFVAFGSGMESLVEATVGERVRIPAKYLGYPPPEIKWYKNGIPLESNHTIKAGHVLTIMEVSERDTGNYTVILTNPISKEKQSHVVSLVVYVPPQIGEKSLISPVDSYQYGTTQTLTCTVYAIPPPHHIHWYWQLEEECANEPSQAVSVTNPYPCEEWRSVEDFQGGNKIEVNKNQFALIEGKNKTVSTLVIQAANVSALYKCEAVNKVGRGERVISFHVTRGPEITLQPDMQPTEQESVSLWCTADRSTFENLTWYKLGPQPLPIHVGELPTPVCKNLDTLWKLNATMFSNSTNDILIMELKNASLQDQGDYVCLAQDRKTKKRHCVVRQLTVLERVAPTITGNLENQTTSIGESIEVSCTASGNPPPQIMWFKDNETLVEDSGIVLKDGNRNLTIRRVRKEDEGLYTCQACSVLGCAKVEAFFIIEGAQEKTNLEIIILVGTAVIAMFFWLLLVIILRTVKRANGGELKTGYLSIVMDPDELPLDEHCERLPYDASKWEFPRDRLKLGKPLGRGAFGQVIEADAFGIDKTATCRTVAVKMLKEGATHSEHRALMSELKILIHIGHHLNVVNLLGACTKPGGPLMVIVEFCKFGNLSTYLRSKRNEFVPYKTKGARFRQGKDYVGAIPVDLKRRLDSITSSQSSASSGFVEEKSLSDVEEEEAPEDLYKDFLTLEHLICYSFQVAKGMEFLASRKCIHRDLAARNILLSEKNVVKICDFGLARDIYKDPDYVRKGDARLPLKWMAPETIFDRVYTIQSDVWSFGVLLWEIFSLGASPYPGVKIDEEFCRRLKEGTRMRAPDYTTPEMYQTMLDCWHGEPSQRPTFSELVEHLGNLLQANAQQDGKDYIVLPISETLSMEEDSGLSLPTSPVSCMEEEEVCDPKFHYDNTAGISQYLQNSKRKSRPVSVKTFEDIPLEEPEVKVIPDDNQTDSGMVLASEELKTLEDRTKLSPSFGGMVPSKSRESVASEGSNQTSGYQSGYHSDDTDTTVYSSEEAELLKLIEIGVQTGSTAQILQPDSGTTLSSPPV
Chain of Aurora kinase B (Q96GD4 whole entry): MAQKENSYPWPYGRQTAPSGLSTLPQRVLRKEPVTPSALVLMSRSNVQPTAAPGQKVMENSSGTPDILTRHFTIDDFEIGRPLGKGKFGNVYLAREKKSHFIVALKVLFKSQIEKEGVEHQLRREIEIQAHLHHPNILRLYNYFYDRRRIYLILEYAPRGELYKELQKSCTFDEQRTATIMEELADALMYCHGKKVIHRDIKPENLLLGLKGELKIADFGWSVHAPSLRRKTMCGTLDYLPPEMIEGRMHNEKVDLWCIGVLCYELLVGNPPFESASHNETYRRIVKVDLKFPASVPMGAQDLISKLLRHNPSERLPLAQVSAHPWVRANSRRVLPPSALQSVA
Chain of Receptor tyrosine-protein kinase erbB-2 (P04626 whole entry): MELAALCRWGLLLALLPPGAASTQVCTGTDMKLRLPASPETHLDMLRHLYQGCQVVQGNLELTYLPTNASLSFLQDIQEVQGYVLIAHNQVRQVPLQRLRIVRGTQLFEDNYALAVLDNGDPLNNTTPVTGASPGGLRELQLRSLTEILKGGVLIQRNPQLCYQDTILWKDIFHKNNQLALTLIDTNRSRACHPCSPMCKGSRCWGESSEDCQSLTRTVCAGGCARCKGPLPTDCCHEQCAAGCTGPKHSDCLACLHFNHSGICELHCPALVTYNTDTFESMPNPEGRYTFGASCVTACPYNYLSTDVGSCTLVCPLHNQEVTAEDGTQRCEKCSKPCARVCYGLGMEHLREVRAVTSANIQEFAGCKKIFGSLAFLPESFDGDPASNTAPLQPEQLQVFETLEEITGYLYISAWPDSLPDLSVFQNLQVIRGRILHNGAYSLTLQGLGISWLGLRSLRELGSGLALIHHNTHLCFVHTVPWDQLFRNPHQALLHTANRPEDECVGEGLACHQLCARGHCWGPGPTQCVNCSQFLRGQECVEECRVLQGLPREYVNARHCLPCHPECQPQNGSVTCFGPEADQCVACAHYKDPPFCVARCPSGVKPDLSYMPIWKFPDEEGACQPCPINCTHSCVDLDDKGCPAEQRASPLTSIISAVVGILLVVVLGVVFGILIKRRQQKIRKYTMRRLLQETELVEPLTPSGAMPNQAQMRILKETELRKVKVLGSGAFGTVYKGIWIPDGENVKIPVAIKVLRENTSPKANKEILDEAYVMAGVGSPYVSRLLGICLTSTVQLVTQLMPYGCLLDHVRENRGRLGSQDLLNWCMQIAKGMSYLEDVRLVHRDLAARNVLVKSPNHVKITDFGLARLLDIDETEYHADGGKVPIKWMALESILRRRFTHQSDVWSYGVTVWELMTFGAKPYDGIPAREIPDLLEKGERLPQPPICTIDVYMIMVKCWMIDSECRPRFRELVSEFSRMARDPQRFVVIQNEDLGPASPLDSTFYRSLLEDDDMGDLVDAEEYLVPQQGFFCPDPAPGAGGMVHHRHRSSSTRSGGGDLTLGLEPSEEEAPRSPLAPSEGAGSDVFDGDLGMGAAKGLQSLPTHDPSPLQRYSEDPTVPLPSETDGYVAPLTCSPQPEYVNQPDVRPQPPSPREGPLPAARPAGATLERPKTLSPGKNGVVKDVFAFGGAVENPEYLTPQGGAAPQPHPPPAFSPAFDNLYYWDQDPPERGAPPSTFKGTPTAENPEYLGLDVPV
Chain of Proto-oncogene tyrosine-protein kinase Src (P12931 2-536 limits assumed): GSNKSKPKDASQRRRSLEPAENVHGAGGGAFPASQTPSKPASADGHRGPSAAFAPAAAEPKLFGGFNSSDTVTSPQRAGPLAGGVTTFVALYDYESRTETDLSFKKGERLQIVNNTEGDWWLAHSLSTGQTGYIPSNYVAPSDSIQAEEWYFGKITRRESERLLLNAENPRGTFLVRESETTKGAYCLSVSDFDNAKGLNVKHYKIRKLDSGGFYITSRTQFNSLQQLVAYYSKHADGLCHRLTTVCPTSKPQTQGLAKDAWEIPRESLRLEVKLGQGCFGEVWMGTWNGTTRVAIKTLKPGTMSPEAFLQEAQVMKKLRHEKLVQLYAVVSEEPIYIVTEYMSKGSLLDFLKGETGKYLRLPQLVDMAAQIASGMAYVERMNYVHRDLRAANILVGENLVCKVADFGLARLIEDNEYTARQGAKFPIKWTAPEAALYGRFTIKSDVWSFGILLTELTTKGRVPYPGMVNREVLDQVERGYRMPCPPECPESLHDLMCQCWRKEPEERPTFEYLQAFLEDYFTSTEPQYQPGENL

| SMILES | IC50 [1] [µM] | IC50 [2] [µM] | IC50 [3] [µM] | IC50 [4] [µM] | IC50 [5] [µM] | IC50 [6] [µM] | IC50 [7] [µM] | IC50 [8] [µM] | IC50 [9] [µM] | IC50 [10] [µM] | IC50 [11] [µM] |
| --- | --- | --- | --- | --- | --- | --- | --- | --- | --- | --- | --- |
| c1cc(Nc2ncnc3nc[nH]c23)cc(-c2nc3ccccc3s2)c1 | > 10 | > 10 | 1.2 | 0.84 | 1.1 | 1.7 | > 10 | 0.87 |  |  |  |
| CN1CCN(c2ccnc(Nc3ccc(-c4nc5ccccc5s4)cc3)n2)CC1 | 0.84 | > 10 |  |  |  | > 10 | > 10 | > 10 | 5.2 | > 10 |  |
| COc1cc(Nc2ncnc3[nH]ccc23)ccc1-c1nc2ccccc2s1 | > 10 | > 10 | 3.6 |  | > 10 | 0.72 | > 10 | > 10 | > 10 | 1.6 | 8.6 |
| CNc1cc(Nc2ccc(-c3nc4ccccc4s3)cc2)ccn1 | > 10 | > 10 |  |  |  | > 10 | > 10 | > 10 | 6 | > 10 |  |
| CNC(=O)c1cc(Nc2ccc(-c3nc4ccccc4s3)cc2)ccn1 | > 10 | > 10 |  |  |  | 2 | > 10 | 3.6 | > 10 | 1.1 |  |
| c1ccc2sc(-c3ccc(Nc4ncnc5ccsc45)cc3)nc2c1 | 2.8 | 0.72 | > 10 |  | > 10 | > 10 | > 10 | > 10 | > 10 | > 10 | > 10 |
| COc1cc2ncnc(Nc3ccc(-c4nc5ccccc5s4)c(OC)c3)c2cc1OC | > 10 | > 10 | > 10 | > 10 | > 10 | 0.063 | > 10 | > 10 |  |  |  |
| Clc1cc(Nc2ncnc3ccsc23)ccc1-c1nc2ccccc2s1 | > 10 | > 10 | > 10 |  | > 10 | > 10 | > 10 | > 10 | > 10 | > 10 | 4.4 |
| Fc1cc(-c2nc3ccccc3s2)ccc1Nc1ncnc2ccsc12 | 4 | 0.29 | > 10 |  | > 10 | > 10 | > 10 | > 10 | > 10 | > 10 | 4.1 |
| c1cc(Nc2ncnc3[nH]ccc23)cc(-c2nc3ccccc3s2)c1 | > 10 | 6.4 | > 10 | > 10 | > 10 |  |  | > 10 |  |  | 1.2 |
| COc1cc2ncnc(Nc3ccc(-c4nc5ccccc5s4)cc3C)c2cc1OC | 4.4 | 3.7 | > 10 | > 10 | > 10 |  | > 10 | 3.4 |  |  | 0.84 |
| c1ccc2sc(-c3ccc(Nc4ncnc5nc[nH]c45)cc3)nc2c1 | > 10 | > 10 | > 10 |  | > 10 | 7.8 | > 10 | > 10 |  |  |  |
| c1ccc2sc(-c3ccc(Nc4ncnc5[nH]ccc45)cc3)nc2c1 | 8 | > 10 | 1.5 |  | 1.5 | 1.3 | 6.95 | 1.2 | 2.1 | 3.1 | 1.9 |

More lines, now with the values ahead:

| IC50 [1] [µM] | IC50 [2] [µM] | IC50 [3] [µM] | IC50 [4] [µM] | IC50 [5] [µM] | IC50 [6] [µM] | IC50 [7] [µM] | IC50 [8] [µM] | IC50 [9] [µM] | IC50 [10] [µM] | IC50 [11] [µM] | SMILES |
| --- | --- | --- | --- | --- | --- | --- | --- | --- | --- | --- | --- |
| 0.37 | 7 |  |  |  | > 10 | > 10 | > 10 |  |  |  | Cc1cc(Nc2ccnc(Nc3ccc(-c4nc5ccccc5s4)cc3)n2)n[nH]1 |
| 0.32 | 3.1 |  |  |  | > 10 | > 10 | > 10 | > 10 | > 10 |  | COc1cc(Nc2nccc(Nc3cc(C)n[nH]3)n2)ccc1-c1nc2ccccc2s1 |
| 1.3 | 1.8 |  |  |  | > 10 | > 10 | 8.8 | 6.5 | > 10 |  | Cc1cc(Nc2cc(Nc3ccc(-c4nc5ccccc5s4)cc3)ccn2)[nH]n1 |
| 1.5 |  |  |  |  |  |  |  |  |  |  | CNc1ccnc(Nc2ccc(-c3nc4ccccc4s3)cc2)n1 |
| > 10 | > 10 |  |  |  | > 10 | > 10 | > 10 |  |  |  | CN(C)c1ccnc(Nc2ccc(-c3nc4ccccc4s3)cc2)n1 |
| > 10 | > 10 | 4.4 |  | 6.4 |  | > 10 | 10 | > 10 | > 10 | 8.7 | COc1nc(Nc2ccc(-c3nc4ccccc4s3)cc2)c2cc[nH]c2n1 |
| > 10 | 4.2 | > 10 | > 10 | > 10 | 2.2 | > 10 | 6.9 |  |  |  | COc1cc2ncnc(Nc3ccc(-c4nc5ccccc5s4)c(O)c3)c2cc1OC |
| 0.35 | 0.135 | > 10 | > 10 | > 10 | 1.5 | > 10 | 6.8 |  |  |  | COc1cc2ncnc(Nc3ccc(-c4nc5ccccc5s4)cc3)c2cc1OC |
| > 10 | > 10 | > 10 | > 10 | > 10 | > 10 | > 10 | > 10 |  |  | > 10 | COc1cc(Nc2ccnc3cc(Cl)ccc23)ccc1-c1nc2ccccc2s1 |
| > 10 | > 10 | 2.9 |  | 2.1 | 5.1 | > 10 | 0.96 | 7.7 | > 10 | 2.5 | COc1nc(Nc2ccc(-c3nc4ccccc4s3)c(OC)c2)c2cc[nH]c2n1 |
| 5.8 | > 10 | > 10 |  | > 10 | 2.6 | > 10 | 9.2 | 3.4 | > 10 | 1.3 | COc1cc(Nc2ncnc3nc[nH]c23)ccc1-c1nc2ccccc2s1 |
| > 10 | > 10 |  |  |  | > 10 | 9.7 | 8.9 | 6.9 | > 10 |  | CNc1nccc(Nc2ccc(-c3nc4ccccc4s3)cc2)n1 |
| > 10 | > 10 | > 10 |  | > 10 | > 10 | > 10 | > 10 | > 10 | > 10 | > 10 | COc1cc(Nc2ncnc3ccsc23)ccc1-c1nc2ccccc2s1 |
| > 10 | > 10 | > 10 | > 10 | > 10 | > 10 | 0.63 | > 10 |  |  | > 10 | CNc1nc(Nc2ccc(-c3nc4ccccc4s3)cc2)c2cc(OC)c(OC)cc2n1 |
| 5.5 | > 10 |  |  |  |  |  |  |  |  | 4.4 | COc1cc2nc(Nc3cc(C)[nH]n3)nc(Nc3cccc(-c4nc5ccccc5s4)c3)c2cc1OC |
